Measured values taken from patent US20240343681A1, “MOLECULES HAVING PESTICIDAL UTILITY AND INTERMEDIATES AND PROCESSES RELATED THERETO” (priority 2021, published 2024).

Test system: Beet Armyworm (Spodoptera exigua, LAPHEG) second instar larva
Experiment: Bioassay on beet armyworm (BAW), 128-well diet tray assay
Format: in vivo
Conditions: 50 μg/cm^2 on artificial diet, 25° C., five days
Experimental: Example A: Bioassays on Beet Armyworm (Spodoptera exigua, LAPHEG) (“BAW”) and Cabbage Looper (Trichoplusia ni, TRIPNI) (“CL”)
Bioassays on BAW were conducted using a 128-well diet tray assay. One second instar BAW larva was placed in each well (8 wells total) of the diet tray that had been previously filled with 1 mL of artificial diet to which 50 μg/cm^2 of the test molecule (dissolved in 50 μL of 90:10 acetone-water mixture) had been applied (to each of eight wells) and then allowed to dry. Trays were covered with a clear self-adhesive cover, vented to allow gas exchange, and held at 25° C., 14:10 light-dark for five days. Percent mortality was recorded for the larvae in each well; activity in the eight wells was then averaged.

SMILES | activity against BAW (percent mortality, averaged over eight wells)
Cc1ccccc1C(=O)Nc1cc(NC(=O)[C@H]2[C@H](c3cc(Cl)cc(Cl)c3)C2(Cl)Cl)ccc1Cl (racemic) [F73, trans-rac-N-(2-Chloro-5-(2,2-dichloro-3-(3,5-dichlorophenyl)cyclopropane-1-carboxamido)phenyl)-2-methylbenzamide] | exhibited activity
Cc1cc(C#N)ccc1C(=O)Nc1cc(NC(=O)[C@H]2[C@H](c3ccc(F)c(Br)c3)C2(Cl)Cl)ccc1Cl [F98, N-(5-((1R,3R)-3-(3-Bromo-4-fluorophenyl)-2,2-dichlorocyclopropane-1-carboxamido)-2-chlorophenyl)-4-cyano-2-methylbenzamide] | exhibited activity
O=C(Nc1cc(NC(=O)[C@H]2[C@H](c3cc(Cl)cc(Cl)c3)C2(Cl)Cl)ccc1Cl)c1cccc(F)c1 (racemic) [F66, trans-rac-N-(2-Chloro-5-(2,2-dichloro-3-(3,5-dichlorophenyl)cyclopropane-1-carboxamido)phenyl)-3-fluorobenzamide] | exhibited activity
O=C(CC(F)(F)F)Nc1cc(NC(=O)[C@H]2[C@H](c3cc(Cl)cc(Cl)c3)C2(Cl)Cl)ccc1Cl (racemic) [F5, trans-rac-2,2-Dichloro-N-(4-chloro-3-(3,3,3-trifluoropropanamido)phenyl)-3-(3,5-dichlorophenyl)cyclopropane-1-carboxamide] | exhibited activity
O=C(Nc1cc(NC(=O)[C@H]2[C@H](c3cc(Cl)cc(Cl)c3)C2(Cl)Cl)ccc1Cl)c1nc(C(F)(F)F)cs1 (racemic) [F36, trans-rac-N-(2-Chloro-5-(2,2-dichloro-3-(3,5-dichlorophenyl)cyclopropane-1-carboxamido)phenyl)-4-(trifluoromethyl)thiazole-2-carboxamide] | exhibited activity
Cc1cc(C#N)ccc1C(=O)Nc1cc(NC(=O)[C@H]2[C@H](c3ccc(Cl)c(Cl)c3)C2(Cl)Cl)ccc1Cl [F99, N-(2-Chloro-5-((1R,3R)-2,2-dichloro-3-(3,4-dichlorophenyl)cyclopropane-1-carboxamido)phenyl)-4-cyano-2-methylbenzamide] | exhibited activity
CN(C(=O)c1cc(F)cc(F)c1)c1cc(NC(=O)[C@H]2[C@H](c3cc(Cl)cc(Cl)c3)C2(Cl)Cl)ccc1Cl (racemic) [F94, trans-rac-N-(2-Chloro-5-(2,2-dichloro-3-(3,5-dichlorophenyl)cyclopropane-1-carboxamido)phenyl)-3,5-difluoro-N-methylbenzamide] | exhibited activity
O=C(COCC(F)(F)F)Nc1ccc(C(=O)Nc2cc(NC(=O)[C@H]3[C@H](c4ccc(F)c(C(F)(F)F)c4)C3(Cl)Cl)ccc2Cl)c(F)c1 (racemic) [F119, trans-rac-N-(2-Chloro-5-(2,2-dichloro-3-(4-fluoro-3-(trifluoromethyl)phenyl)cyclopropane-1-carboxamido)phenyl)-2-fluoro-4-(2-(2,2,2-trifluoroethoxy)acetamido)benzamide] | exhibited activity
O=C(Nc1ccc(Cl)c(NC(=O)C(F)(F)c2ccccc2)c1)[C@H]1[C@H](c2cc(Cl)cc(Cl)c2)C1(Cl)Cl (racemic) [F57, trans-rac-2,2-Dichloro-N-(4-chloro-3-(2,2-difluoro-2-phenylacetamido)phenyl)-3-(3,5-dichlorophenyl)cyclopropane-1-carboxamide] | exhibited activity
O=C(Nc1cc(NC(=O)C2C(c3cc(Cl)cc(Cl)c3)C2(Cl)Cl)ccc1Cl)C1CC1(F)F (racemic) [F44, trans-rac-2,2-Dichloro-N-(4-chloro-3-(2,2-difluorocyclopropane-1-carboxamido)phenyl)-3-(3,5-dichlorophenyl)cyclopropane-1-carboxamide] | exhibited activity
N#CC1(C(=O)Nc2cc(NC(=O)[C@H]3[C@H](c4cc(Cl)cc(Cl)c4)C3(Cl)Cl)ccc2Cl)CC1 (racemic) [F43, trans-rac-2,2-Dichloro-N-(4-chloro-3-(1-cyanocyclopropane-1-carboxamido)phenyl)-3-(3,5-dichlorophenyl)cyclopropane-1-carboxamide] | exhibited activity
O=C(Nc1cc(NC(=O)C2C(c3cc(Cl)cc(Cl)c3)C2(Cl)Cl)ccc1Cl)C1CCCO1 (racemic) [F38, trans-rac-N-(2-Chloro-5-(2,2-dichloro-3-(3,5-dichlorophenyl)cyclopropane-1-carboxamido)phenyl)tetrahydrofuran-2-carboxamide] | exhibited activity
O=C(Nc1cc(NC(=O)[C@H]2[C@H](c3cc(Cl)cc(Cl)c3)C2(Cl)Cl)ccc1Cl)c1ccc([N+](=O)[O-])cc1 (racemic) [F89, trans-rac-N-(2-Chloro-5-(2,2-dichloro-3-(3,5-dichlorophenyl)cyclopropane-1-carboxamido)phenyl)-4-nitrobenzamide] | exhibited activity
CC(CC(=O)Nc1cc(NC(=O)C2C(c3cc(Cl)cc(Cl)c3)C2(Cl)Cl)ccc1Cl)C(F)(F)F (racemic) [F9, trans-rac-2,2-Dichloro-N-(4-chloro-3-(4,4,4-trifluoro-3-methylbutanamido)phenyl)-3-(3,5-dichlorophenyl)cyclopropane-1-carboxamide] | exhibited activity
O=C(CCC(F)(F)F)Nc1ccc(C(=O)Nc2cc(NC(=O)[C@H]3[C@H](c4ccc(F)c(C(F)(F)F)c4)C3(Cl)Cl)ccc2Cl)c(F)c1 (racemic) [F120, trans-rac-N-(2-Chloro-5-(2,2-dichloro-3-(4-fluoro-3-(trifluoromethyl)phenyl)cyclopropane-1-carboxamido)phenyl)-2-fluoro-4-(4,4,4-trifluorobutanamido)benzamide] | exhibited activity
O=C(Nc1ccc(F)c(NC(=O)C(F)(F)C(F)(F)C(F)(F)F)c1F)[C@H]1[C@H](c2cc(Cl)c(Cl)c(Cl)c2)C1(Cl)Cl [F13, (1R,3R)-2,2-Dichloro-N-(2,4-difluoro-3-(2,2,3,3,4,4,4-heptafluorobutanamido)phenyl)-3-(3,4,5-trichlorophenyl)cyclopropane-1-carboxamide] | exhibited activity
O=C(Nc1cc(NC(=O)[C@H]2[C@H](c3cc(Cl)cc(Cl)c3)C2(Cl)Cl)ccc1Cl)c1cccc([N+](=O)[O-])c1 (racemic) [F88, trans-rac-N-(2-chloro-5-(2,2-dichloro-3-(3,5-dichlorophenyl)cyclopropane-1-carboxamido)phenyl)-3-nitrobenzamide] | exhibited activity
O=C(Nc1cc(NC(=O)[C@H]2[C@H](c3cc(Cl)cc(Cl)c3)C2(Cl)Cl)ccc1Cl)c1ccccc1F (racemic) [F65, trans-rac-N-(2-Chloro-5-(2,2-dichloro-3-(3,5-dichlorophenyl)cyclopropane-1-carboxamido)phenyl)-2-fluorobenzamide] | exhibited activity
